# From US20210246202A1, “TREATMENTS RELATED TO GH/IGF-1 AXIS INHIBITION” (UNIVERSITY OF SOUTHERN CALIFORNIA, priority 2010, published 2021)
# B1: insulin-like growth factor-binding protein 1 (protein, UniProt P08833 26-259, looked up)
# Insulin-like growth …: APWQCAPCSAEKLALCPPVSASCSEVTRSAGCGCCPMCALPLGAACGVATARCARGLSCRALPGEQQPLHALTRGQGACVQESDASAPHAAEAGSPESPESTEITEEELLDNFHLMAPSEEDHSILWDAISTYDGSKALHVTNIKKWKEPCRIELYRVVESLAKAQETSGEEISKFYLPNCNKNGFYHSRQCETSMDGEAGLCWCVYPWNGKRIPGSPEIRGDPNCQIYFNVQN
# Assays:
# [1] = tested on: pancreatic carcinoma cells; conditions: Mol Cancer Ther May 2009 8:1095-1105; cited from earlier work
# [2] = Body weight of mice immunized with huGH; assay type: in vivo, mouse; conditions: 20 male and 20 female mice immunized with huGH
# Text: FIG. 13A provides a plot of body weight of mice immunized with human Growth Hormone (huGH) (20 male and 20 female) versus time.
# This figure provides a plot of body weight of mice immunized with human Growth Hormone (huGH) (20 male and 20 female) versus time.
# [3] = tested on: chemotherapy side effects; assay: Short term immunization with human GH before cyclophosphamide treatment (body weight, complete blood count); assay type: in vivo, mouse; conditions: cyclophosphamide i.p., 300 mg/kg, body weight and CBC 7-days after CP
# Description: FIG. 14A provides plots of the body weight of mice with short term immunization (STI) with human GH (half-filled arrowheads) after cyclophosphamide treatment (cyclophosphamide (CP) i.p., 300 mg/kg, indicated by the solid arrowhead)(Sham means treated with buffer and no chemo);
# FIG. 14B provides a histogram of the complete blood count (CBC) 7-days after CP treatment (Data are presented as percentage of pre-chemo value);
# FIG. 14A provides plots of the body weight of mice with short term immunization (STI) with human GH (half-filled arrowheads) after cyclophosphamide treatment (cyclophosphamide (CP) i.p., 300 mg/kg, indicated by solid arrowheads). FIG. 14B provides a histogram of the complete blood count (CBC) 7-days after CP treatment (Data are presented as percentage of pre-chemo value).
# human GH = human GH (Homo sapiens, UniProt P01241); assay: Slot blot of anti-huGH activity in serum from mice immunized with huGH; assay type: in vivo, mouse; conditions: slot blot on immobilized human GH
# primary glial cells = assay: 24 hour LDH release from primary glial cells treated with IGFBP1; assay type: cell-based
# Description: FIG. 17 provides a plot of the 24 hour lactate dehydrogenase (LDH) release from the treatment of primary glial cells with the IGF-I inhibitor insulin-like growth factor-binding protein 1 (IGFBP1) and with insulin-like growth factor-binding protein 2 (IGFBP2). […] IGFBP1 is a strong IGF-I inhibitor. Other IGFBPs can even increase IGF-I signaling.
# Sequence of human GH (P01241 27-217): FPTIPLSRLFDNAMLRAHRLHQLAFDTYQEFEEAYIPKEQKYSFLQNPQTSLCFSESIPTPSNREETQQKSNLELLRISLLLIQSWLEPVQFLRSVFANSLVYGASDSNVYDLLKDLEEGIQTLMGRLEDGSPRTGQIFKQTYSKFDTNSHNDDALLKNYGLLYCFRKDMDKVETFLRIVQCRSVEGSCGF
molecule,measurement,setting,value
AMG 479: a fully human anti-insulin-like growth factor receptor type I monoclonal antibody,effect on growth and survival of pancreatic carcinoma cells,[1],inhibits the growth and survival of pancreatic carcinoma cells
human Growth Hormone [huGH],body weight of immunized mice,[2],Lower body weight
same,effect against chemotherapy side effects,[3],protective effect against chemotherapy side effects
same,immunized mice showing strong anti-huGH activity in serum,human GH,34 out of 40
B1,protection against oxidative damage (LDH release),primary glial cells,protects them against oxidative damage
